What was measured:
Assay type in all cases: in vivo
[1] = test system: Echinochloa crus-galli (ECHCG); assay: Test Example B, post-emergence herbicidal test; details: 312 h, evaluated after 13 days, 100=total damage to plant, 0=no damage to plant
Experimental: (§1) Seeds of a variety of test species were sown in standard soil in pots. After cultivation for one day (pre-emergence) or after 8 days cultivation (post-emergence) under controlled conditions in a glasshouse (at 24/16° C., day/night; 14 hours light; 65% humidity), the plants were sprayed with an aqueous spray solution derived from the formulation of the technical active ingredient in acetone/water (50:50) solution containing 0.5% Tween 20 (polyoxyethelyene sorbitan monolaurate, CAS RN 9005-64-5). The test plants were then grown in a glasshouse under controlled conditions in a glasshouse (at 24/16° C., day/night; 14 hours light; 65% humidity) and watered twice daily. After 13 days for pre and post-emergence, the test was evaluated (100=total damage to plant; 0=no damage to plant). Test Plants: Setaria faberi (SETFA), Alopecurus myosuroides (ALOMY), Echinochloa crus-galli (ECHCG), and Avena fatua (AVEFA).

[2] = test system: Alopecurus myosuroides (ALOMY); assay: Test Example B, post-emergence herbicidal test; details: 312 h, evaluated after 13 days, 100=total damage to plant, 0=no damage to plant
Experimental: as §1

Setaria faberi (SETFA) [3] = assay: Test Example B, post-emergence herbicidal test; details: 250 g/ha, evaluated after 13 days, 100=total damage to plant, 0=no damage to plant
Experimental: as §1

Avena fatua (AVEFA) [4] = assay: Test Example B, post-emergence herbicidal test; details: 312 h, evaluated after 13 days, 100=total damage to plant, 0=no damage to plant
Experimental: as §1

[5] = test system: Echinochloa crus-galli (ECHCG); assay: Test Example B, pre-emergence herbicidal test; details: 312 h, evaluated after 13 days, 100=total damage to plant, 0=no damage to plant
Experimental: as §1

[6] = test system: Alopecurus myosuroides (ALOMY); assay: Test Example B, pre-emergence herbicidal test; details: 312 h, evaluated after 13 days, 100=total damage to plant, 0=no damage to plant
Experimental: as §1

Setaria faberi (SETFA) [7] = assay: Test Example B, pre-emergence herbicidal test; details: 250 g/ha, evaluated after 13 days, 100=total damage to plant, 0=no damage to plant
Experimental: as §1

Avena fatua (AVEFA) [8] = assay: Test Example B, pre-emergence herbicidal test; details: 312 h, evaluated after 13 days, 100=total damage to plant, 0=no damage to plant
Experimental: as §1

[9] = test system: Echinochloa crus-galli (ECHCG); assay: Test Example 1, post-emergence herbicidal test; details: 360 h, evaluated 15 days later, 100=total damage to plant, 0=no damage to plant
Experimental: (§2) Monocotyledonous and dicotyledonous test plants were sown in standard soil in pots. After cultivation for one day (pre-emergence) or after 10 days cultivation (post-emergence) under controlled conditions in a glasshouse, the plants were sprayed with an aqueous spray solution derived from the formulation of the technical active ingredient in 0.6 ml acetone and 45 ml formulation solution containing 10.6% Emulsogen EL (Registry number 61791-12-6), 42.2% N-methylpyrrolidone, 42.2% dipropylene glycol monomethyl ether (Registry number 34590-94-8) and 0.2% X-77 (Registry number 11097-66-8). The test plants were then grown in a greenhouse under optimum conditions until, 15 days later for post-emergence and 20 days for pre-emergence, the test was evaluated (100=total damage to plant; 0=no damage to plant). Test Plants: Lolium perenne (LOLPE), Setaria faberi (SETFA), Digitaria sanguinalis (DIGSA), Alopecurus myosuroides (ALOMY), Echinochloa crus-galli (ECHCG) and Avena fatua (AVEFA), Post-Emergence Data: […]

Lolium perenne (LOLPE) [10] = assay: Test Example 1, post-emergence herbicidal test; details: 360 h, evaluated 15 days later, 100=total damage to plant, 0=no damage to plant
Experimental: as §2

[11] = test system: Alopecurus myosuroides (ALOMY); assay: Test Example 1, post-emergence herbicidal test; details: 360 h, evaluated 15 days later, 100=total damage to plant, 0=no damage to plant
Experimental: as §2

[12] = test system: Digitaria sanguinalis (DIGSA); assay: Test Example 1, post-emergence herbicidal test; details: 360 h, evaluated 15 days later, 100=total damage to plant, 0=no damage to plant
Experimental: as §2

Setaria faberi (SETFA) [13] = assay: Test Example 1, post-emergence herbicidal test; details: 360 h, evaluated 15 days later, 100=total damage to plant, 0=no damage to plant, read-out: SEFTA damage to plant
Experimental: as §2

Avena fatua (AVEFA) [14] = assay: Test Example 1, post-emergence herbicidal test; details: 360 h, evaluated 15 days later, 100=total damage to plant, 0=no damage to plant
Experimental: as §2

[15] = test system: Echinochloa crus-galli (ECHCG); assay: Test Example 1, pre-emergence herbicidal test; details: 480 h, evaluated 20 days later, 100=total damage to plant, 0=no damage to plant
Experimental: as §2, with “Pre-Emergence” for “Post-Emergence”

Lolium perenne (LOLPE) [16] = assay: Test Example 1, pre-emergence herbicidal test; details: 480 h, evaluated 20 days later, 100=total damage to plant, 0=no damage to plant
Experimental: as §2, with “Pre-Emergence” for “Post-Emergence”

[17] = test system: Alopecurus myosuroides (ALOMY); assay: Test Example 1, pre-emergence herbicidal test; details: 480 h, evaluated 20 days later, 100=total damage to plant, 0=no damage to plant
Experimental: as §2, with “Pre-Emergence” for “Post-Emergence”

[18] = test system: Digitaria sanguinalis (DIGSA); assay: Test Example 1, pre-emergence herbicidal test; details: 480 h, evaluated 20 days later, 100=total damage to plant, 0=no damage to plant
Experimental: as §2, with “Pre-Emergence” for “Post-Emergence”

Setaria faberi (SETFA) [19] = assay: Test Example 1, pre-emergence herbicidal test; details: 480 h, evaluated 20 days later, 100=total damage to plant, 0=no damage to plant, read-out: SEFTA damage to plant
Experimental: as §2, with “Pre-Emergence” for “Post-Emergence”

Avena fatua (AVEFA) [20] = assay: Test Example 1, pre-emergence herbicidal test; details: 480 h, evaluated 20 days later, 100=total damage to plant, 0=no damage to plant
Experimental: as §2, with “Pre-Emergence” for “Post-Emergence”

Compound	pest or weed control at 250 g/ha [1] [%]	pest or weed control at 250 g/ha [2] [%]	SETFA damage to plant (Setaria faberi (SETFA) [3])	pest or weed control at 250 g/ha (Avena fatua (AVEFA) [4]) [%]	pest or weed control at 250 g/ha [5] [%]	pest or weed control at 250 g/ha [6] [%]	SETFA damage to plant (Setaria faberi (SETFA) [7])	pest or weed control at 250 g/ha (Avena fatua (AVEFA) [8]) [%]	pest or weed control at 125 g/ha [9] [%]	pest or weed control at 125 g/ha (Lolium perenne (LOLPE) [10]) [%]	pest or weed control at 125 g/ha [11] [%]	pest or weed control at 125 g/ha [12] [%]	pest or weed control at 125 g/ha (Setaria faberi (SETFA) [13]) [%]	pest or weed control at 125 g/ha (Avena fatua (AVEFA) [14]) [%]	pest or weed control at 250 g/ha [15] [%]	pest or weed control at 250 g/ha (Lolium perenne (LOLPE) [16]) [%]	pest or weed control at 250 g/ha [17] [%]	pest or weed control at 250 g/ha [18] [%]	pest or weed control at 250 g/ha (Setaria faberi (SETFA) [19]) [%]	pest or weed control at 250 g/ha (Avena fatua (AVEFA) [20]) [%]
CO/N=C1/C[C@H]2CC[C@@H]1[C@H]1C(=O)C(c3c(C)cc(C)cc3C)=C(O)[C@@H]21 [Compound T59]	50	30	80	0	80	90	80	30												
CCc1ccc(-c2ccc(Cl)cc2)cc1C1=C(O)[C@H]2[C@@H]3CC[C@@H](C(=O)C3)[C@H]2C1=O (racemic) [Compound T7, rac-(3aS,4R,7R,7aR)-2-(4′-chloro-4-ethylbiphenyl-3-yl)hexahydro-4,7-ethanoindene-1,3,8-trione]	20	20	60	20	100	90	90	70												
Cc1cc(-c2ccccc2)cc(C)c1C1=C(O)[C@@H]2[C@H](C1=O)[C@@H]1C=C[C@H]2CC1 (racemic) [Compound T56, endo-(3aR,4S,7R,7aS)-2-(3,5-dimethylbiphenyl-4-yl)-3a,4,7,7a-tetrahydro-4,7-ethanoindene-1,3-dione]	100	60	100	60	100	100	100	20												
CCc1cc(C)cc(CC)c1C1=C(O)[C@H]2[C@H]3CC[C@](OC)(CC3)[C@H]2C1=O [Compound T57]	100	70	100	30	100	100	100	100												
CCc1cc(C)cc(CC)c1C1=C(O)[C@H]2[C@H]3C=C[C@](OC)(CC3)[C@H]2C1=O [Compound T55]									100	70	80	80	90	80	100	100	100	100	100	70
CCc1ccc(-c2ccc(Cl)cc2)cc1C1=C(O)[C@H]2[C@@H]3CC[C@@H](C(=NOC)C3)[C@H]2C1=O (racemic) [Compound T9, rac-(3aS,4R,7R,7aR)-2-(4′-chloro-4-ethylbiphenyl-3-yl)hexahydro-4,7-ethanoindene-1,3,8-trione 8-(O-methyloxime)]	90	70	100	60	0	0	0	0												
CCc1ccc(-c2ccc(Cl)cc2)cc1C1=C(O)[C@H]2[C@H]3C=C[C@](OC)(CC3)[C@H]2C1=O (racemic) [Compound T8, rac-(3aS,4R,7R,7aS)-2-(4′-chloro-4-ethylbiphenyl-3-yl)-4-methoxy-3a,4,7,7a-tetrahydro-4,7-ethanoindene-1,3-dione]									100	0	70	100	80	10	100	70	60	100	90	10
